In ChEMBL document CHEMBL1138400, “Discovery of gamma-secretase inhibitors efficacious in a transgenic animal model of Alzheimer's disease” (Bioorg Med Chem Lett, 2007) one finds IC50 and AUC(0-t) data, which are given here for 33 compounds.

Data set [1] addresses Gamma-secretase. The experiment in a line: Inhibition of gamma-secretase mediated amyloid beta-40 production in HEK293 cell membranes. It counts as cell-based, Homo sapiens.
For data set [2], the target named is Gamma-secretase. Put plainly: Inhibition of gamma-secretase mediated amyloid beta-40 production in HEK293 cells by whole cell-based assay. The arrangement: species or system Homo sapiens.
A short description of a further data set: in vivo. Conditions: rat, plasma, po, 10 mg/kg.

Description for in vivo: AUC (0 to 6h) in rat at 10 mg/kg, po

By IC50 is commonly meant the concentration that gives 50% inhibition. A lower IC50 goes with higher potency. With `C[C@H]1CN(CC2CC2)CCN1C(=O)OCC1CCCC(c2cc(F)cc(F)c2)N1S(=O)(=O)c1ccc(Cl)cc1` (mixture of isomers), half-maximal inhibition on Gamma-secretase [1] (IC50) required 110 nM.
One may read the AUC(0-t) as exposure summed from dosing to a finite time, without extrapolation to infinity. Read a high AUC(0-t) as high exposure. Consider `O=C(OC1(C2CCCC(c3cccc(F)c3)N2S(=O)(=O)c2ccc(Cl)cc2)CC1)N1C2CCC1CC(N1CC[C@@H](O)C1)C2` (mixture of isomers), for which the IC50 on Gamma-secretase [1] was 3.6 nM; against Gamma-secretase [2], 20 nM. Besides, the AUC(0-t) at 6 h in “in vivo” was 2.09 µg·h/mL.
On to `C[C@H]1CN(C(C)(CO)CO)CCN1C(=O)OC1(C2CCCC(c3cccc(F)c3)N2S(=O)(=O)c2ccc(Cl)cc2)CC1` (mixture of isomers), for which the IC50 against Gamma-secretase [1] came to 0.9 nM; at Gamma-secretase [2] it was 5.1 nM. Besides, in the data set “in vivo”, the AUC(0-t) at 6 h worked out at 1.77 µg·h/mL.
Turning to `C[C@H]1CNCCN1C(=O)OC1(C2CCCC(c3cc(F)cc(F)c3)N2S(=O)(=O)c2ccc(Cl)cc2)CC1` (mixture of isomers), the half-maximal inhibitory concentration (IC50) at Gamma-secretase [1] turned out to be 16.8 nM; on Gamma-secretase [2] it was 154 nM.
As to `C[C@H]1CN(CCO)CCN1C(=O)OC1(C2CCCC(c3cccc(F)c3)N2S(=O)(=O)c2ccc(Cl)cc2)CC1` (mixture of isomers), the figures for the IC50 against Gamma-secretase [1] and against Gamma-secretase [2] were 2.1 nM and 28.7 nM, respectively. This compound also returned an AUC(0-t) at 6 h in the data set “in vivo” of 7.21 µg·h/mL.
For `C[C@H]1CN(CC2CC2)CCN1C(=O)OC1(C2CCCC(c3cc(F)cc(F)c3)N2S(=O)(=O)c2ccc(Cl)cc2)CC1` (mixture of isomers), half-maximal inhibition against Gamma-secretase [1] (IC50) was put at 6.1 nM.
For `CCN1CCN(C(=O)OC2(C3CCCC(c4cc(F)cc(F)c4)N3S(=O)(=O)c3ccc(Cl)cc3)CC2)CC1` (racemic), the IC50 was found to be 1.1 nM on Gamma-secretase [1] and 7.5 nM on Gamma-secretase [2]. The same compound came in with an AUC(0-t) at 6 h in “in vivo” of 1.4 µg·h/mL.
For `O=C(OC1(C2CCCC(c3cc(F)cc(F)c3)N2S(=O)(=O)c2cc(F)cc(F)c2)CC1)N1CCN(CCO)CC1` (racemic), in that order: 16.8 nM, 24.7 nM and 23.1 µg·h/mL.
Compound `CC(C)(OC(=O)N1CCC(N2CCCCC2)CC1)C1CCCC(c2cccc(F)c2)N1S(=O)(=O)c1ccc(Cl)cc1` (racemic) came in with an IC50 against Gamma-secretase [1] of 4.4 nM. Besides, in “in vivo”, the AUC(0-t) at 6 h stood at 2.43 µg·h/mL.
`O=C(OCC1CCCC(c2cccc(F)c2)N1S(=O)(=O)c1ccc(Cl)cc1)N1CCC(N2CCCCC2)CC1` (racemic): the IC50 against Gamma-secretase [1] is 11.2 nM. In the data set “in vivo”, this compound returned an AUC(0-t) at 6 h of 1.38 µg·h/mL.
Compound `CN1CN(C)C2(CCN(C(=O)OCC3CCCC(c4cc(F)cc(F)c4)N3S(=O)(=O)c3ccc(Cl)cc3)CC2)C1=O` (racemic) yielded an IC50 at Gamma-secretase [1] of 26.8 nM.
On the same count and under the same terms, the result for `O=C(OC1([C@H]2CCC[C@@H](c3cc(F)cc(F)c3)N2S(=O)(=O)c2ccc(Cl)cc2)CC1)N1CCC2(CC1)C(=O)NCN2c1ccccc1` (racemic) reads 8.5 nM; that for `O=C(OCC1CCCC(c2cc(F)cc(F)c2)N1S(=O)(=O)c1ccc(Cl)cc1)N1CCN(C2CCCCC2)CC1` (racemic), 36.1 nM; that for `O=C(OCC1CCCC(c2cc(F)cc(F)c2)N1S(=O)(=O)c1ccc(Cl)cc1)N1CCNCC1` (racemic), 74.8 nM.
Same read-out and setting: the figure for `CN(c1ccccc1)C1CCN(C(=O)OC2(C3CCCC(c4cccc(F)c4)N3S(=O)(=O)c3ccc(Cl)cc3)CC2)CC1` (racemic) is 15.4 nM.
Consider `O=C(OC1(C2CCCC(c3cccc(F)c3)N2S(=O)(=O)c2ccc(Cl)cc2)CC1)N1CCC(N2CCC(F)(F)CC2)CC1` (racemic), for which the IC50 on Gamma-secretase [1] was found to be 2.3 nM; against Gamma-secretase [2], 5.5 nM. In the data set “in vivo”, this compound displayed an AUC(0-t) at 6 h of 1.67 µg·h/mL.
For the compound `CCCC1(O)CCN(C(=O)OC2(C3CCCC(c4cccc(F)c4)N3S(=O)(=O)c3ccc(Cl)cc3)CC2)CC1` (racemic), the results for the IC50 on Gamma-secretase [1] and at Gamma-secretase [2] were 4.5 nM and 10.7 nM, respectively.
For the compound `CC1CN(C(=O)OC2(C3CCCC(c4cccc(F)c4)N3S(=O)(=O)c3ccc(Cl)cc3)CC2)CC(C)N1` (racemic), the IC50 was found to be 5.3 nM at Gamma-secretase [1] and 120 nM against Gamma-secretase [2]. The same compound yielded an AUC(0-t) at 6 h in the data set “in vivo” of 1.81 µg·h/mL.
For `O=C(OC1(C2CCCC(c3cccc(F)c3)N2S(=O)(=O)c2ccc(Cl)cc2)CC1)N1CCN(CCO)CC1` (racemic), in that order: 1.9 nM, 7 nM and 2.09 µg·h/mL.
Turning to `O=C(OC1(C2CCCC(c3cc(F)cc(F)c3)N2S(=O)(=O)c2ccc(Cl)cc2)CC1)N1CCC(N2CCCCC2)CC1` (racemic), the figures for the IC50 at Gamma-secretase [1] and against Gamma-secretase [2] were 0.3 nM and 5.8 nM, respectively. For the same compound, in the data set “in vivo”, the AUC(0-t) at 6 h is 1.08 µg·h/mL.
For `CC(C)N1CCN(C(=O)OC2(C3CCCC(c4cc(F)cc(F)c4)N3S(=O)(=O)c3ccc(Cl)cc3)CC2)CC1` (racemic), in that order: 2.7 nM, 17 nM and 0.783 µg·h/mL.
Take `CN(c1ccccc1)C1CCN(C(=O)OCC2CCCC(c3cc(F)cc(F)c3)N2S(=O)(=O)c2ccc(Cl)cc2)CC1` (racemic): on Gamma-secretase [1], the concentration for half-maximal inhibition (IC50) was 165 nM.
Consider `O=C(OC1(C2CCCC(c3cccc(F)c3)N2S(=O)(=O)c2ccc(Cl)cc2)CC1)N1C2CCC1CC(N1CCCCC1)C2` (racemic), for which the IC50 on Gamma-secretase [1] was 2.6 nM; on Gamma-secretase [2], 9.7 nM. The AUC(0-t) at 6 h in the data set “in vivo” was found to be 2.88 µg·h/mL.
As for `CCC(CO)NC1CC2CCC(C1)N2C(=O)OC1(C2CCCC(c3cccc(F)c3)N2S(=O)(=O)c2ccc(Cl)cc2)CC1` (racemic), the values for the IC50 at Gamma-secretase [1] and at Gamma-secretase [2] were 5.2 nM and 21.5 nM, respectively. In the data set “in vivo”, this compound returned an AUC(0-t) at 6 h of 3.07 µg·h/mL.
On to `O=C(OC1(C2CCCC(c3cc(F)cc(F)c3)N2S(=O)(=O)c2cc(F)cc(F)c2)CC1)N1CCC(N2CCCCC2)CC1` (racemic), for which the IC50 against Gamma-secretase [1] is 3.5 nM; against Gamma-secretase [2], 12.9 nM. In addition, the AUC(0-t) at 6 h in the data set “in vivo” is 5.05 µg·h/mL.
As for `O=C(OC1(C2CCCC(c3cccc(F)c3)N2S(=O)(=O)c2ccc(Cl)cc2)CC1)N1CCC(O)(C2CC2)CC1` (racemic), the IC50 against Gamma-secretase [1] came to 3.7 nM; on Gamma-secretase [2] it was 7.7 nM.
Consider `O=C(OC[C@H]1CCC[C@@H](c2cc(F)cc(F)c2)N1S(=O)(=O)c1ccc(Cl)cc1)N1CCC2(CC1)C(=O)NCN2c1ccccc1` (racemic), for which, at Gamma-secretase [1], the IC50 was 152 nM.
Still for that read-out and setting: the result for `CN1CN(C)C2(CCN(C(=O)OC3(C4CCCC(c5cc(F)cc(F)c5)N4S(=O)(=O)c4ccc(Cl)cc4)CC3)CC2)C1=O` (racemic) reads 5.3 nM; that for `O=C(OC1(C2CCCC(c3cc(F)cc(F)c3)N2S(=O)(=O)c2ccc(Cl)cc2)CC1)N1CCN(C2CCCCC2)CC1` (racemic), 4.2 nM.
In the case of `O=C(OC1(C2CCCC(c3cc(F)cc(F)c3)N2S(=O)(=O)c2ccc(Cl)cc2)CC1)N1CCNCC1` (racemic; form 1), inhibition at Gamma-secretase [1] was half-maximal at 7.9 nM (IC50).
On Gamma-secretase [1], `O=C(OC1(C2CCCC(c3cccc(F)c3)N2S(=O)(=O)c2ccc(Cl)cc2)CC1)N1CCC(N2CCCCC2)CC1` (racemic; form 1) showed an IC50 of 0.7 nM.
With `Cl.O=C(OC1(C2CCCC(c3cc(F)cc(F)c3)N2S(=O)(=O)c2ccc(Cl)cc2)CC1)N1CCNCC1` (racemic; form 2), the IC50 was found to be 7.9 nM on Gamma-secretase [1] and 106 nM against Gamma-secretase [2]. In addition, in “in vivo”, the AUC(0-t) at 6 h is 6.21 µg·h/mL.
Turning to `Cl.O=C(OC1(C2CCCC(c3cccc(F)c3)N2S(=O)(=O)c2ccc(Cl)cc2)CC1)N1CCC(N2CCCCC2)CC1` (racemic; form 2), the values for the 50% inhibitory concentration (IC50) against Gamma-secretase [1] and at Gamma-secretase [2] were 0.8 nM and 5 nM, respectively. The compound also gave an AUC(0-t) at 6 h in “in vivo” of 0.802 µg·h/mL.
